Laboratory results from ChEMBL document CHEMBL6121010, “Novel antileukemic compound with sub-micromolar potency against STAT5 addicted myeloid leukemia cells” (Eur J Med Chem, 2025).
Activity calls are given as the source filed them. The calls are words filed in the database; no cut-off is given here.

Key:
MV4-11 [1] = test: Downregulation of STAT5B expression in human MV4-11 cells by Western blot analysis; assay type: functional, cell-based
KU812 cell line [2] = test: Antileukemic activity against human KU812 cell line co-cultured with human HS-27A in presence of Ara-c; assay type: functional, cell-based
[3] = Cytotoxicity against Bone marrow cell (unknown origin) assessed as cell viability incubated for 48 hrs by MTT assay; assay type: toxicity, cell-based; conditions: bone marrow cells (unknown origin)
MOLM-13 [4] = test: Antiproliferative activity against human MOLM-13 cells measured after 72 hrs by MTT assay; assay type: functional, cell-based
[5] = biological target: T1, Signal transducer and activator of transcription 5B (Homo sapiens) (UniProt P51692); test: Inhibition of STAT5B phosphorylation in human KU812 cell line incubated for 24 hrs by Western blotting analysis; assay type: cell-based
T1 sequence (whole entry): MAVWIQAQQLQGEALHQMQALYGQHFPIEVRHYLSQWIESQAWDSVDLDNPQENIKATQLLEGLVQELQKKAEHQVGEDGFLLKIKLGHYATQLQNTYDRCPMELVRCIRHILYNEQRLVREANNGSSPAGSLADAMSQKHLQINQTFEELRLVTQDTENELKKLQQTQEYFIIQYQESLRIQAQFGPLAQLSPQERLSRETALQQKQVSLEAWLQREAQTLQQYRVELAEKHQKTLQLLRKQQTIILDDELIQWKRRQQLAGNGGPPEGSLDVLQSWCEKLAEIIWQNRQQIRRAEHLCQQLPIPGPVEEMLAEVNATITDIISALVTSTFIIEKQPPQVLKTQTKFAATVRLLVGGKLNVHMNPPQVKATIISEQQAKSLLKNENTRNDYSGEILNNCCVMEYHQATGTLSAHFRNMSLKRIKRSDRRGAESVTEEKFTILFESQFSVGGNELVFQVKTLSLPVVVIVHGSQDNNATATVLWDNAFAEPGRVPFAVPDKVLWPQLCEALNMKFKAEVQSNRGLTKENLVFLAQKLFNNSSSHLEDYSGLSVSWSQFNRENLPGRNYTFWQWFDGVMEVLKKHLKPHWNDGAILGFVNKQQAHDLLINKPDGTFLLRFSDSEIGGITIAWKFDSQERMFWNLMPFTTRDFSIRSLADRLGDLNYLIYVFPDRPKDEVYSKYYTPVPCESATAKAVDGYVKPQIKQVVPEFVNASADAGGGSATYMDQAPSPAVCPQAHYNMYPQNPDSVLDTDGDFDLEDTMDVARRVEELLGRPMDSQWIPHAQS

K562-IMA[r] [6] = test: Downregulation of STAT5A expression in human Imatinib-resistant K562 cells by Western blot analysis; assay type: functional, cell-based
[7] = biological target: T1, Signal transducer and activator of transcription 5B (Homo sapiens); test: Inhibition of STAT5B phosphorylation in human MV4-11 cells incubated for 24 hrs by Western blotting analysis; assay type: cell-based
KU812 [8] = test: Downregulation of STAT5A expression in human KU812 cell line by Western blot analysis; assay type: functional, cell-based
K562-IMA[r] [9] = test: Downregulation of STAT5B expression in human Imatinib-resistant K562 cells by Western blot analysis; assay type: functional, cell-based
K562 [10] = test: Antiproliferative activity against human K562 cells measured after 72 hrs by MTT assay; assay type: functional, cell-based
[11] = Cytotoxicity against human HS-27A assessed as cell viability incubated for 48 hrs by MTT assay; assay type: toxicity, cell-based; conditions: HS-27A cells
MV4-11 [12] = test: Antileukemic activity against human MV4-11 cells co-cultured with human HS-27A in presence of Imatinib; assay type: functional, cell-based
[13] = Potency index, ratio of Pimozide EC50 to test compound EC50 for antileukemic activity against human KCL-22 cells assessed as inhibition of cell growth incubated for 48 hrs by MTT assay; assay type: functional
MV4-11 [14] = test: Antiproliferative activity against human MV4-11 cells measured after 72 hrs by MTT assay; assay type: functional, cell-based
MOLM-13 [15] = test: Antileukemic activity against human MOLM-13 assessed as cell viability incubated for 48 hrs by MTT assay; assay type: functional, cell-based; conditions: MOLM-13, 48 h
KCL-22 [16] = test: Antileukemic activity against human KCL-22 assessed as cell viability incubated for 48 hrs by MTT assay; assay type: functional, cell-based; conditions: KCL-22, 48 h
MV4-11 [17] = test: Downregulation of STAT5A expression in human MV4-11 cells by Western blot analysis; assay type: functional, cell-based
[18] = biological target: T2, Signal transducer and activator of transcription 5A (Homo sapiens) (UniProt P42229); test: Inhibition of STAT5A phosphorylation in human MV4-11 cells incubated for 24 hrs by Western blotting analysis; assay type: cell-based
T2 sequence (whole entry): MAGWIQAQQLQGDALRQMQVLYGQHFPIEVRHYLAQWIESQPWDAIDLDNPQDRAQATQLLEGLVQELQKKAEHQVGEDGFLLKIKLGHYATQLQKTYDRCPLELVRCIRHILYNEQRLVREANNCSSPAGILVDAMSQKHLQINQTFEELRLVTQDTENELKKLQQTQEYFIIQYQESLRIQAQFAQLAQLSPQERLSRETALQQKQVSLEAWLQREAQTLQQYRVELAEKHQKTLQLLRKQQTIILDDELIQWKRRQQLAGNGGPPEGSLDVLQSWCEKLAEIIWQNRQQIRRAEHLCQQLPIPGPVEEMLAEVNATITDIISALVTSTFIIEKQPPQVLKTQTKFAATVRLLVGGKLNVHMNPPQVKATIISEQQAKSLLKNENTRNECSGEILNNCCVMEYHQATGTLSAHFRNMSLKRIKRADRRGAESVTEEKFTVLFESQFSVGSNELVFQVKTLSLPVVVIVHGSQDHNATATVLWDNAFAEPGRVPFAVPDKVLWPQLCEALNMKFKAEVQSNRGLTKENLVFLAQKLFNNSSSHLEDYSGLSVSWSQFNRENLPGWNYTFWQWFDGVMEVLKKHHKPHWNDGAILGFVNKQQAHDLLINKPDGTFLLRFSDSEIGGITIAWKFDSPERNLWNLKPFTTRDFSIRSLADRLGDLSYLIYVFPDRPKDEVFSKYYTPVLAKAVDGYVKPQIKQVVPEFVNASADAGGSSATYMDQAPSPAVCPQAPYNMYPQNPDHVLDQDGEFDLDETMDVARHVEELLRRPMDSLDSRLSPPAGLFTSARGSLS

[19] = Potency index, ratio of Pimozide EC50 to test compound EC50 for antileukemic activity against human K562 cells assessed as inhibition of cell growth incubated for 48 hrs by MTT assay; assay type: functional
KU812 cell line [20] = test: Antileukemic activity against human KU812 cell line co-cultured with human HS-27A in presence of Imatinib; assay type: functional, cell-based
KU812 cell line [21] = test: Antileukemic activity against human KU812 cell line assessed as inhibition of cell growth incubated for 48 hrs by MTT assay; assay type: functional, cell-based; conditions: KU812, 48 h
MV4-11 [22] = test: Antileukemic activity against human MV4-11 cell line assessed as inhibition of cell growth incubated for 48 hrs by MTT assay; assay type: functional, cell-based; conditions: MV4-11, 48 h
[23] = biological target: T2, Signal transducer and activator of transcription 5A (Homo sapiens); test: Inhibition of STAT5A phosphorylation in human Imatinib-resistant K562 cells up to 5 uM incubated for 24 hrs by Western blotting analysis; assay type: cell-based
[24] = biological target: T2, Signal transducer and activator of transcription 5A (Homo sapiens); test: Inhibition of STAT5A phosphorylation in human KU812 cell line incubated for 24 hrs by Western blotting analysis; assay type: cell-based
K562 [25] = test: Antileukemic activity against human K562 assessed as cell viability incubated for 48 hrs by MTT assay; assay type: functional, cell-based; conditions: K562, 48 h
KU812 cell line [26] = test: Antiproliferative activity against human KU812 cell line measured after 72 hrs by MTT assay; assay type: functional, cell-based
[27] = biological target: T1, Signal transducer and activator of transcription 5B (Homo sapiens); test: Inhibition of STAT5B phosphorylation in human Imatinib-resistant K562 cells up to 5 uM incubated for 24 hrs by Western blotting analysis; assay type: cell-based
K562-IMA[r] [28] = test: Antiproliferative activity against human Imatinib-resistant K562 cells assessed as inhibition of cell growth at 100 nM measured after 72 hrs by MTT assay; assay type: functional, cell-based
[29] = Potency index, ratio of Pimozide EC50 to test compound EC50 for antileukemic activity against human KU812 cell line assessed as inhibition of cell growth incubated for 48 hrs by MTT assay; assay type: functional
KCL-22 [30] = test: Antiproliferative activity against human KCL-22 cells measured after 72 hrs by MTT assay; assay type: functional, cell-based
MV4-11 [31] = test: Potency index, ratio of Pimozide EC50 to test compound EC50 for antileukemic activity against human MV4-11 cells assessed as inhibition of cell growth incubated for 48 hrs by MTT assay; assay type: functional
BaF3 = test: Downregulation of STAT5B N642H mutant expression in mouse BaF3 cells incubated for 24 hrs by Western blot analysis; assay type: functional, cell-based; conditions: dose <= 5.0 µM
KU812 [32] = test: Downregulation of STAT5B expression in human KU812 cell line by Western blot analysis; assay type: functional, cell-based
[33] = Potency index, ratio of Pimozide EC50 to test compound EC50 for antileukemic activity against human MOLM-13 cells assessed as inhibition of cell growth incubated for 48 hrs by MTT assay; assay type: functional
MV4-11 [34] = test: Antileukemic activity against human MV4-11 cells co-cultured with human HS-27A in presence of Ara-c; assay type: functional, cell-based

Which Activity (MV4-11 [1]) does the source give for `CC1(C)CCN(CCOc2ccc3[nH]ccc3c2)c2cccc(-c3cnc(N)nc3)c21` here?
The Activity was “Active”.

And the Activity (KU812 cell line [2])?
The Activity was “Active”.

And the EC50 at 48 h [3]?
Its EC50 at 48 h is 12000 nM.

What about the Activity (MOLM-13 [4]) of the same compound?
The Activity was “Active”.

And the inhibition [5]?
The inhibition was “Active”.

What about the Activity (K562-IMA[r] [6]) of the same compound?
Its Activity is “Active”.

What about the inhibition [7] of the same compound?
Its inhibition is “Active”.

And the Activity (KU812 [8])?
Its Activity is “inactive”.

And the Activity (K562-IMA[r] [9])?
Its Activity is “Active”.

What about the Activity (K562 [10]) of the same compound?
Its Activity is “Active”.

What about the EC50 at 48 h [11] of the same compound?
Its EC50 at 48 h is 44100 nM.

What about the Activity (MV4-11 [12]) of the same compound?
Its Activity is “Active”.

What about the “Ratio EC50” value [13] of the same compound?
The value was 5.

What about the Activity (MV4-11 [14]) of the same compound?
The Activity was “Active”.

And the EC50 (MOLM-13 [15])?
The EC50 was 300 nM.

And the EC50 (KCL-22 [16])?
Its EC50 is 500 nM.

What about the Activity (MV4-11 [17]) of the same compound?
Its Activity is “inactive”.

And the inhibition [18]?
The inhibition was “Active”.

And the “Ratio EC50” value [19]?
The value was 5.

And the Activity (KU812 cell line [20])?
Its Activity is “Active”.

What about the EC50 (KU812 cell line [21]) of the same compound?
The EC50 was 600 nM.

And the EC50 (MV4-11 [22])?
Its EC50 is 300 nM.

What about the inhibition [23] of the same compound?
Its inhibition is “Active”.

And the inhibition [24]?
The inhibition was “Active”.

And the EC50 (K562 [25])?
The EC50 was 800 nM.

And the Activity (KU812 cell line [26])?
The Activity was “Active”.

And the inhibition [27]?
Its inhibition is “Active”.

What about the Activity (K562-IMA[r] [28]) of the same compound?
The Activity was “Active”.

What about the “Ratio EC50” value [29] of the same compound?
Its value is 5.

What about the Activity (KCL-22 [30]) of the same compound?
Its Activity is “Active”.

And the “Ratio EC50” value (MV4-11 [31])?
Its value is 5.

And the Activity (BaF3)?
Its Activity is “Dose-dependent-effect”.

What about the Activity (KU812 [32]) of the same compound?
The Activity was “Active”.

And the “Ratio EC50” value [33]?
Its value is 5.

And the Activity (MV4-11 [34])?
The Activity was “Active”.
